Laboratory results from US20210244721A1, “SMALL MOLECULE ENTEROVIRUS INHIBITORS AND USES THEREOF” (priority 2020, published 2021).

Assays:
EV-A71 Tainan/4643/98 = experiment: CPE assay, EV-A71 Tainan in RD cells; assay type: cell-based; details: Enterovirus A, EVA71; EV-A71 Tainan, RD cells; read-out: EC50
in vitro [1] = details: human
in vitro [2] = details: African green monkey
[3] = test system: EV-D68 US/KY/14-18953 virus; experiment: CPE assay, EV-D68 US/KY/14-18953 in RD cells; assay type: cell-based, Enterovirus D68 (EV-D68); details: EV-D68 US/KY/14-18953, RD cells
A549 = experiment: Cytotoxicity in A549 cells
Protocol: (§1) The cytotoxicity of each compound was determined using the neutral red cell viability assay. The assay was performed under similar conditions (incubation temperature, time, and media) as the CPE, but excluded viral infection. Data acquisition and analysis (CC50) was performed similarly to the antiviral CPE assay, and all values are from triplicate experiments.

HeLa = experiment: Cytotoxicity in HeLa cells
Protocol: as §1

RD cells = experiment: Cytotoxicity, neutral red method, RD cells; details: RD cells, neutral red method
EV-D68 US/MO/14-18947 = experiment: CPE assay, EV-D68 US/MO/14-18947 in RD cells; details: EV-D68 US/MO/14-18947, RD cells
EV-D68 US/MO/14-18949 = experiment: CPE assay, EV-D68 US/MO/14-18949 in RD cells; details: EV-D68 US/MO/14-18949, RD cells
EV-D68 US/IL/14-18956 = experiment: CPE assay, EV-D68 US/IL/14-18956 in RD cells; details: EV-D68 US/IL/14-18956, RD cells
EV-D68 UA/IL/14-18952 = experiment: CPE assay, EV-D68 UA/IL/14-18952 in RD cells; details: EV-D68 UA/IL/14-18952, RD cells

Row | SMILES | EC50 (EV-A71 Tainan/4643/98) | CC50 at 3 days (in vitro [1]) | CC50 at 3 days (in vitro [2]) | SI = selectivity index (CC50/EC50) [3] | CC50 (A549) | CC50 (HeLa) | CC50 (RD cells) | SI (CC50/EC50) (EV-D68 US/MO/14-18947) | EC50 (EV-D68 US/MO/14-18947; Enterovirus D, EVD68, RD) | SI (CC50/EC50) (EV-D68 US/MO/14-18949) | SI (CC50/EC50) (EV-D68 US/IL/14-18956) | SI (CC50/EC50) (EV-D68 UA/IL/14-18952)
1 | Cc1ccc2c(c1)c1c3n2CCNC3CCC1 (stereo not drawn) [drawing 197] | > 20 µM | 19 µM | 40.5 µM |  |  |  |  |  |  |  |  | 
2 | O=C(NCCN1CCCC1)c1cc(-c2cccs2)nc2ccccc12 [drawing 130] |  |  |  | 666.7 | 83.2 µM | 41.7 µM | 40 µM | 666.7 | 0.06 µM | 800 | 800 | 571.4
